Results on 11 molecules are retold here after patent publication US7709507B2 (Allergan, Inc., priority 2006, dated 2010).

Holding throughout (type): cell-based
In assay [1] the target is T1, alpha2B receptor (Homo sapiens, UniProt P18089).
T1 construct: expressed in transfected cells; host or cells: NIH-3T3 cells
T1 sequence (P18089 1-450): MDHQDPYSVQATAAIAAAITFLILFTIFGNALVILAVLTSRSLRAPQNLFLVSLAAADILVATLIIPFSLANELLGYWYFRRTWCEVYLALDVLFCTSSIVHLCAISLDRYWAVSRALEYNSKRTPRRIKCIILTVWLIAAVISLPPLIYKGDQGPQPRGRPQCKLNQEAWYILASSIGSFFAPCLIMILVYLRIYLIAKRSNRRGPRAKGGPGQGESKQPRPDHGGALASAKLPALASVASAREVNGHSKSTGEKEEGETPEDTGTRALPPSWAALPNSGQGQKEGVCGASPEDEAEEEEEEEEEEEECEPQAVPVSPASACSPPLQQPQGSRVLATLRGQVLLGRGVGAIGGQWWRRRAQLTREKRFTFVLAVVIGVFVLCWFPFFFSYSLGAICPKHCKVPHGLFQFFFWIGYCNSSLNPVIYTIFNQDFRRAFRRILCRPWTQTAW
As to the kind of experiment: Receptor Selection and Amplification Technology (RSAT) assay, Alpha 2B. As to conditions: for EC50: RSAT, transfected NIH-3T3 cells with Gq/i5, not active = at concentrations less than 10 micromolar, read-out: Alpha 2B EC50; for Alpha 2B IA (intrinsic activity): ratio of maximal effect to that of standard full agonist brimonidine (UK14304). The procedure:
(§1) Receptor Selection and Amplification Technology (RSAT) Assay
(§2) The RSAT assay measures a receptor-mediated loss of contact inhibition that results in selective proliferation of receptor-containing cells in a mixed population of confluent cells. The increase in cell number is assessed with an appropriate transfected marker gene such as β-galactosidase, the activity of which can be easily measured in a 96-well format. Receptors that activate the G protein, Gq, elicit this response. Alpha2 receptors, which normally couple to Gi, activate the RSAT response when coexpressed with a hybrid Gq protein that has a Gi receptor recognition domain, called Gq/i5.
(§3) NIH-3T3 cells are plated at a density of 2×10^6 cells in 15 cm dishes and maintained in Dulbecco's modified Eagle's medium supplemented with 10% calf serum. One day later, cells are cotransfected by calcium phosphate precipitation with mammalian expression plasmids encoding p-SV-β-galactosidase (5-10 μg), receptor (1-2 μg) and G protein (1-2 μg). 40 μg salmon sperm DNA may also be included in the transfection mixture. Fresh media is added on the following day and 1-2 days later, cells are harvested and frozen in 50 assay aliquots. Cells are thawed and 100 μl added to 100 μl aliquots of various concentrations of drugs in triplicate in 96-well dishes. Incubations continue 72-96 hr at 37° C. After washing with phosphate-buffered saline, β-galactosidase enzyme activity is determined by adding 200 μl of the chromogenic substrate (consisting of 3.5 mM o-nitrophenyl-β-D-galactopyranoside and 0.5% nonidet P-40 in phosphate buffered saline), incubating overnight at 30° C. and measuring optical density at 420 nm. The absorbance is a measure of enzyme activity, which depends on cell number and reflects a receptor-mediated cell proliferation. The efficacy or intrinsic activity is calculated as a ratio of the maximal effect of the drug to the maximal effect of a standard full agonist for each receptor subtype. Brimonidine, also called UK14304, the chemical structure of which is shown below, is used as the standard agonist for the alpha2A, alpha2B and alpha2C receptors. The EC50 is the concentration at which the drug effect is half of its maximal effect.
The results of the RSAT assay with several exemplary compounds of the invention are disclosed in Table 1 above together with the chemical formulas of these exemplary compounds. EC50 values are nanomolar. NA stands for “not active” at concentrations less than 10 micromolar. IA stands for “intrinsic activity.”

Assay [2] concerns the target T2, alpha2A receptor (Homo sapiens, UniProt P08913).
T2 construct: expressed in transfected cells; host or cells: NIH-3T3 cells
T2 sequence (P08913 1-465): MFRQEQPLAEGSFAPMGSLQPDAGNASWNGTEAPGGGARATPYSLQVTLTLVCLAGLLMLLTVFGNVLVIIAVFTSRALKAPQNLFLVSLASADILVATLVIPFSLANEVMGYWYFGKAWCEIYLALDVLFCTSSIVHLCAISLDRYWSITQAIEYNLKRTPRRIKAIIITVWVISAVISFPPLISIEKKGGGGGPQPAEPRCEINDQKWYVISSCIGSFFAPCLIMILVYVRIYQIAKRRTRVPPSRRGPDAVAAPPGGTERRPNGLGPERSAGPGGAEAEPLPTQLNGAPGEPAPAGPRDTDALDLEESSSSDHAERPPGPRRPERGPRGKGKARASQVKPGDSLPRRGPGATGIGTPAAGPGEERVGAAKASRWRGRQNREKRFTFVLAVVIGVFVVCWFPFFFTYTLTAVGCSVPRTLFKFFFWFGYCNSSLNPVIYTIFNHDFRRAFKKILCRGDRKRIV
The experiment in a line: Receptor Selection and Amplification Technology (RSAT) assay, Alpha 2A. The conditions noted are these: for Alpha 2A EC50 / EC50: RSAT, transfected NIH-3T3 cells with Gq/i5, not active = at concentrations less than 10 micromolar; for EC50: read-out: Alpha 2A EC50; for Alpha 2A IA (intrinsic activity): ratio of maximal effect to that of standard full agonist brimonidine (UK14304). The procedure: as §1, §2
as §3, with “Fresh media is added on the following day and 1-2 days later, cells are harvested and frozen in 50 assay aliquots.” left out
(§4) EC50 values are nanomolar. NA stands for “not active” at concentrations less than 10 micromolar. IA stands for “intrinsic activity.”

Assay [3] addresses T3, alpha2C receptor (Homo sapiens, UniProt P18825).
T3 construct: expressed in transfected cells; host or cells: NIH-3T3 cells
T3 sequence (P18825 1-462): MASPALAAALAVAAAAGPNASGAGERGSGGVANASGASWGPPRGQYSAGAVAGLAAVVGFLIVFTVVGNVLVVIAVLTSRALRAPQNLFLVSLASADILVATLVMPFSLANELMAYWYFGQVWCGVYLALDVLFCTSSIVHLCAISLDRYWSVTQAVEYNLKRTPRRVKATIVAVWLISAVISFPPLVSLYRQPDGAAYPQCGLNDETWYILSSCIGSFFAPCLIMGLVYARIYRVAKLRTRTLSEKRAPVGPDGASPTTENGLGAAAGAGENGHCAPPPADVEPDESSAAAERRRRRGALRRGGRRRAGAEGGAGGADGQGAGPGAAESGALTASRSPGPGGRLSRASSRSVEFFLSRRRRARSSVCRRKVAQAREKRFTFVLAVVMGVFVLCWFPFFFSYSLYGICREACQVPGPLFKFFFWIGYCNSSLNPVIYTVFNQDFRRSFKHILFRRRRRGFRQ
The experiment in a line: Receptor Selection and Amplification Technology (RSAT) assay, Alpha 2C. The conditions noted are these: RSAT, transfected NIH-3T3 cells with Gq/i5; not active = at concentrations less than 10 micromolar. As for the experimental part:
as §1, §2
as §3, with “Fresh media is added on the following day and 1-2 days later, cells are harvested and frozen in 50 assay aliquots.” left out
as §4

Structures are written as SMILES.

Usually EC50 stands for the concentration at which the effect is half-maximal. Take `O=C(NCCF)NC(Cc1ccccc1)c1ccc(Cl)c(Cl)c1` (stereo not shown) [1-[1-(3,4-dichlorophenyl)-2-phenylethyl]-3-(2-fluoroethyl)urea]: in assay [1], the half-maximal effective concentration (EC50) is 0.488 µM and the “Alpha 2B IA (intrinsic activity)” value amounted to 0.69. Moreover, the “Alpha 2A EC50” value in assay [2] is listed as “not active”. Also, the “Alpha 2C EC50” value in assay [3] was “not active”.
With `O=C(NCCF)NC(Cc1ccccc1)c1cccc(Br)c1` (stereo not shown) [1-[1-(3-Bromophenyl)-2-phenylethyl]-3-(2-fluoroethyl)urea], in assay [1], the EC50 was found to be 0.173 µM and the “Alpha 2B IA (intrinsic activity)” value stood at 0.86. Also, the “Alpha 2A EC50” value in assay [2] is “not active”. The “Alpha 2C EC50” value in assay [3] is “not active”.
Take `O=C(NCCF)NC(Cc1ccccc1)c1cccc(Cl)c1F` (stereo not shown) [1-[1-(3-chloro-2-fluorophenyl)-2-phenylethyl]-3-(2-fluoroethyl)urea]: in assay [1], the half-maximal effective concentration (EC50) was 0.138 µM and the “Alpha 2B IA (intrinsic activity)” value is recorded as 1.0. In assay [2], the “Alpha 2A EC50” value is listed as “not active”. For the same molecule, in assay [3], the “Alpha 2C EC50” value is on record as “not active”.
As to `Cc1cccc(CC(NC(=O)NCCF)c2cccc(Cl)c2)c1` (stereo not shown) [1-[1-(3-chloro-phenyl)-2-m-tolyl-ethyl]-3-(2-fluoro-ethyl)-urea], in assay [1], the EC50 is 0.00599 µM and the “Alpha 2B IA (intrinsic activity)” value stood at 0.9. In assay [2], the EC50 was found to be 0.0704 µM and the “Alpha 2A IA (intrinsic activity)” value is reported as 0.35. In addition, the “Alpha 2C EC50” value in assay [3] is “not active”.
As to `O=C(NCCF)NC(Cc1ccncc1)c1cccc(Cl)c1` (stereo not shown) [1-[1-(3-chloro-phenyl)-2-pyridin-4-yl-ethyl]-3-(2-fluoro-ethyl)-urea], in assay [1], the EC50 worked out at 0.0307 µM and the “Alpha 2B IA (intrinsic activity)” value is recorded as 1.32. Also, in assay [2], the EC50 came to 0.368 µM and the “Alpha 2A IA (intrinsic activity)” value is 0.57. The “Alpha 2C EC50” value in assay [3] is “not active”.
Turning to `Cc1cccc(C(Cc2cccc(F)c2F)NC(=O)NCCF)c1` (stereo not shown) [1-[2-(2,3-difluoro-phenyl)-1-m-tolyl-ethyl]-3-(2-fluoro-ethyl)-urea], in assay [1], the half-maximal effective concentration (EC50) is 0.0205 µM and the “Alpha 2B IA (intrinsic activity)” value amounted to 1.02. Besides, the “Alpha 2A EC50” value in assay [2] was “not active”. Besides, in assay [3], the “Alpha 2C EC50” value is “not active”.
In the case of `Cc1cccc(C(Cc2cc(F)ccc2F)NC(=O)NCCF)c1` (stereo not shown) [1-[2-(2,5-difluoro-phenyl)-1-m-tolyl-ethyl]-3-(2-fluoro-ethyl)-urea], in assay [1], the concentration for a half-maximal effect (EC50) is 0.0213 µM and the “Alpha 2B IA (intrinsic activity)” value was 1.02. Besides, the “Alpha 2A EC50” value in assay [2] is reported as “not active”. Further, the “Alpha 2C EC50” value in assay [3] was “not active”.
Take `O=C(NCCF)NC(Cc1cc(F)ccc1F)c1cccnc1` (stereo not shown) [1-[2-(2,5-difluoro-phenyl)-1-pyridin-3-yl-ethyl]-3-(2-fluoro-ethyl)-urea]: in assay [1], the EC50 was 0.611 µM and the “Alpha 2B IA (intrinsic activity)” value is recorded as 1.02. The “Alpha 2A EC50” value in assay [2] is reported as “not active”. Moreover, the “Alpha 2C EC50” value in assay [3] is recorded as “not active”.
In the case of `O=C(NCCF)NC(Cc1ccc(F)c(F)c1)c1ccncc1` (stereo not shown) [1-[2-(3,4-difluoro-phenyl)-1-pyridin-4-yl-ethyl]-3-(2-fluoro-ethyl)-urea], in assay [1], the EC50 turned out to be 3.62 µM and the “Alpha 2B IA (intrinsic activity)” value is on record as 0.44. Further, the “Alpha 2A EC50” value in assay [2] is “not active”. For the same molecule, the “Alpha 2C EC50” value in assay [3] is “not active”.
For the molecule `O=C(NCCF)NC(Cc1cccc(F)c1)c1ccccc1` (stereo not shown) [N-(2-fluoroethyl)-N′-[2-(3-fluorophenyl)-1-phenylethyl]urea], in assay [1], the EC50 turned out to be 0.026 µM and the “Alpha 2B IA (intrinsic activity)” value turned out to be 0.95. Besides, the “Alpha 2A EC50” value in assay [2] is listed as “not active”. In addition, in assay [3], the “Alpha 2C EC50” value is reported as “not active”.
For `Cc1cccc(C(Cc2ccccc2)NC(=O)NCCF)c1` (stereo not shown) [drawing 72, 1-(2-fluoroethyl)-3-[1-(3-methylphenyl)-2-phenylethyl]urea], in assay [1], the EC50 was 0.0298 µM and the “Alpha 2B IA (intrinsic activity)” value amounted to 0.91. Besides, the “Alpha 2A EC50” value in assay [2] is “not active”. Moreover, in assay [3], the “Alpha 2C EC50” value is “not active”.
